Measurements from ChEMBL document CHEMBL5523667, “Blood-stage antimalarial activity, favourable metabolic stability and in vivo toxicity of novel piperazine linked 7-chloroquinoline-triazole conjugates” (Eur J Med Chem, 2024).
Calls of active or inactive are those of the source. The rule behind the calls is not given here.

Experiments:
[1] = Stability of the compound in tris buffer at pH 7.4 at 1 uM measured after 120 mins by LC-MS/MS analysis; type: physicochemical; conditions: pH 7.4, 2 h
[2] = system: Plasmodium berghei; assay: Antimalarial activity against Plasmodium berghei ANKA infected in female BALB/c mouse assessed as survival at 50 to 100 mg/kg, ip; type: functional; conditions: dose 50-100 mg/kg
[3] = Toxicity in mouse assessed as effect on exploratory activity at 100 to 200 mg/kg measured over 5 mins by open field arena test; type: organism-based; conditions: in vivo, dose 100-200 mg/kg
[4] = biological target: T1, Falcipain-3 (Plasmodium falciparum 3D7, UniProt Q8IIL0); assay: Inhibition of N-terminal 6His-tagged recombinant Plasmodium falciparum FP3 expressed in Escherichia coli M15 using Z-Phe-Arg-AMC as substrate measured after 30 mins by microplate reader analysis
T1 sequence (Q8IIL0 whole entry): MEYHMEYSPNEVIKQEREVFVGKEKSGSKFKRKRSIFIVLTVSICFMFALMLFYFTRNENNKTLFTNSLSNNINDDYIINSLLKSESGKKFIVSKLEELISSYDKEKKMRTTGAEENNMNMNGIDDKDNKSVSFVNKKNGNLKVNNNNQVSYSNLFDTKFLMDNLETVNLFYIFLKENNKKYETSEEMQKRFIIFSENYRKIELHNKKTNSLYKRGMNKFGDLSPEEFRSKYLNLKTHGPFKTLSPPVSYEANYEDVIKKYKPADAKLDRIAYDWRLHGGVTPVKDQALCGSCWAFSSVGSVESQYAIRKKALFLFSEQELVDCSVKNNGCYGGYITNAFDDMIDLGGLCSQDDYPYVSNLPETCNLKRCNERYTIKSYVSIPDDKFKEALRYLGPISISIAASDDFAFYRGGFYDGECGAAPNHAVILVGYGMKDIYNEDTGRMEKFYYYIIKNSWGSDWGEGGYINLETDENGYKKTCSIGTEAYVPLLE

[5] = Toxicity in mouse assessed as impairment of short-term memory at 200 mg/kg by novel object recognition test (reference value: 11.87 +/- 3.82 ); type: organism-based; conditions: in vivo
[6] = system: Plasmodium falciparum; assay: Antimalarial activity against synchronized-trophozoite stage chloroquine-sensitive Plasmodium falciparum 3D7 assessed as inhibition of parasite growth by measuring pyknotic appearance measured upto 60 hrs by Giemsa staining based light microscopic analysis; type: functional, organism-based
[7] = biological target: T2, Falcipain-3 (Plasmodium falciparum 3D7) (UniProt Q8IIL0); assay: Binding affinity to N-terminal 6His-tagged recombinant Plasmodium falciparum FP3 expressed in Escherichia coli M15 assessed as dissociation rate constant (Koff) by surface plasmon resonance analysis
T2 sequence (whole entry): T1 sequence (Q8IIL0 whole entry)

[8] = system: Plasmodium falciparum; assay: Resistance index, ratio of IC50 for antimalarial activity against chloroquine-resistant Plasmodium falciparum K1 to IC50 for antimalarial activity against chloroquine-sensitive Plasmodium falciparum NF54; type: functional
[9] = Toxicity in mouse assessed as impairment of short-term memory at 100 mg/kg by novel object recognition test (reference value: 11.87 +/- 3.82 ); type: organism-based; conditions: in vivo
[10] = Toxicity in mouse assessed as latency time to the central area at 100 mg/kg by open field test (reference value: 106.48 +/- 43.19 sec); type: organism-based; conditions: in vivo, 43 s
[11] = system: Plasmodium falciparum; assay: Antimalarial activity against ring stage chloroquine-sensitive Plasmodium falciparum 3D7 assessed as inhibition of parasite growth by SYBR green I dye based assay; type: functional, organism-based
[12] = system: Plasmodium falciparum; assay: Antimalarial activity against ring stage chloroquine-resistant Plasmodium falciparum RKL9 assessed as inhibition of parasite growth by SYBR green I dye based assay; type: functional, organism-based
[13] = Toxicity in mouse assessed as cell death in kidney at 100 to 200 mg/kg measured after 7 days by hematoxylin and eosin staining based analysis; type: organism-based; conditions: in vivo, 168 h, dose 100-200 mg/kg, time 7 day
[14] = Toxicity in mouse assessed as cell apoptosis in liver at 100 to 200 mg/kg measured after 7 days by hematoxylin and eosin staining based analysis; type: organism-based; conditions: in vivo, 168 h, dose 100-200 mg/kg, time 7 day
[15] = Toxicity in mouse assessed as cell death in spleen at 100 to 200 mg/kg measured after 7 days by hematoxylin and eosin staining based analysis; type: organism-based; conditions: in vivo, 168 h, dose 100-200 mg/kg, time 7 day
[16] = biological target: T3, Falcipain 2 (Plasmodium falciparum, UniProt Q9N6S8); assay: Binding affinity to N-terminal 6His-tagged recombinant Plasmodium falciparum FP2 expressed in Escherichia coli M15 assessed as dissociation constant by surface plasmon resonance analysis
T3 sequence (Q9N6S8 whole entry): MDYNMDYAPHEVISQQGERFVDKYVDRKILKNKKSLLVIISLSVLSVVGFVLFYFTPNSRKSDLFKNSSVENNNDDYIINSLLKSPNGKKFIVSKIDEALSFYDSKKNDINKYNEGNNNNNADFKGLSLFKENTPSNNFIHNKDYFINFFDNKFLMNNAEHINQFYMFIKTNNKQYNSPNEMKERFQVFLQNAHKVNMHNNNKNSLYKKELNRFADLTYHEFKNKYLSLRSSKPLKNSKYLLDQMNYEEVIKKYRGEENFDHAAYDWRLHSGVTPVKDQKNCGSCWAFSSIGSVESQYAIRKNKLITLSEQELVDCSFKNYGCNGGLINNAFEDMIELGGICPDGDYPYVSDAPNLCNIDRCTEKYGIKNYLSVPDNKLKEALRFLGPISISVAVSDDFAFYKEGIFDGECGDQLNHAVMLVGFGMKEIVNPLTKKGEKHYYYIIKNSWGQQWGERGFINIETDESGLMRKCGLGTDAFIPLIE

[17] = biological target: T4, Falcipain 2 (Plasmodium falciparum) (UniProt Q9N6S8); assay: Inhibition of N-terminal 6His-tagged recombinant Plasmodium falciparum FP2 expressed in Escherichia coli M15 using Z-Phe-Arg-AMC as substrate at 5 uM measured after 30 mins by microplate reader analysis relative to control
T4 sequence (whole entry): T3 sequence (Q9N6S8 whole entry)

[18] = biological target: T2, Falcipain-3 (Plasmodium falciparum 3D7); assay: Inhibition of N-terminal 6His-tagged recombinant Plasmodium falciparum FP3 expressed in Escherichia coli M15 using Z-Phe-Arg-AMC as substrate at 10 uM measured after 30 mins by microplate reader analysis relative to control
[19] = Toxicity in mouse assessed as effect on food intake at 100 to 200 mg/kg measured for 7 days; type: organism-based; conditions: in vivo, 168 h, dose 100-200 mg/kg, time 7 day
[20] = biological target: T3, Falcipain 2; assay: Binding affinity to N-terminal 6His-tagged recombinant Plasmodium falciparum FP2 expressed in Escherichia coli M15 assessed as dissociation constant incubated for 15 mins in presence of lysine reactive dye by microscale thermophoretic analysis
[21] = system: Plasmodium falciparum; assay: Antimalarial activity against chloroquine-resistant Plasmodium falciparum K1 assessed as inhibition of parasite growth by lactate dehydrogenase assay; type: functional, organism-based
[22] = biological target: T2, Falcipain-3 (Plasmodium falciparum 3D7); assay: Inhibition of N-terminal 6His-tagged recombinant Plasmodium falciparum FP3 expressed in Escherichia coli M15 using Z-Phe-Arg-AMC as substrate at 5 uM measured after 30 mins by microplate reader analysis relative to control
[23] = system: Plasmodium falciparum; assay: Antimalarial activity against synchronized-ring stage chloroquine-sensitive Plasmodium falciparum 3D7 assessed as halt in parasite multiplication by measuring appearance of pyknotic bodies measured after 36 hrs by Giemsa staining based light microscopic analysis; type: functional, organism-based
[24] = biological target: T4, Falcipain 2 (Plasmodium falciparum); assay: Binding affinity to N-terminal 6His-tagged recombinant Plasmodium falciparum FP2 expressed in Escherichia coli M15 assessed as dissociation rate constant (Koff) by surface plasmon resonance analysis
[25] = system: Plasmodium falciparum; assay: Antimalarial activity against ring stage chloroquine-sensitive Plasmodium falciparum 3D7 assessed as growth inhibition incubated with compound for 6 hrs and measured 72 hrs post invasion by SYBR Green dye based analysis; type: functional, organism-based

In the case of `O=C(Cn1cc(CN2CCN(c3ccnc4cc(Cl)ccc34)CC2)nn1)Nc1cccc([N+](=O)[O-])c1`, the Stability [1] is reported as “Stable”, the Survival [2] is reported as “<=30 day” and the Activity [3] is reported as “Non-Toxic”. For the same compound, the IC50 [4] was 31.8 µM, the Activity [5] was 1.889 and the Activity [6] was “Active”. The K [7] was 0.305 s⁻¹, the “Ratio IC50” value [8] was 1.95 and the Activity [9] was 3.6. It also gave a Time [10] of 56.23 s, an IC50 [11] of 0.97 µM and an IC50 [12] of 1.8 µM. For the same compound, the Activity [13] was “Non-Toxic”, the Activity [14] was “Non-Toxic” and the Activity [15] was “Non-Toxic”. For the same compound, the Kd [16] was 14 µM, the inhibition [17] was 27.3% and the inhibition [18] was 28.5%. The Activity [19] was “Non-Toxic”, the Kd [20] was 2.99 µM and the IC50 [21] was 1.89 µM. For the same compound, the inhibition [22] was 27.3%, the Activity [23] was “Active” and the K [24] was 0.097 s⁻¹. For the same compound, the IC50 [25] was 10.2 µM.
